Results published in US20140066439A1, “OSTEOCLAST ACTIVITY” (Katholieke Universiteit Leuen, K.U.Leuven R&D, priority 2010, published 2014).
Entries after “also recorded” stand apart in the source; their conditions may differ.

Legend:
Format in all cases: cell-based, human
[1] = tested on: PBMCs from critically ill patients; test: Osteoclast formation (TRAP staining, day 14) in PBMCs from critically ill patients cultured in critically ill patient serum; details: low doses, compounds added d1-d14, TRAP staining at day 14
From the text: We have determined that the treatment of patient's peripheral blood mononuclear cell (PBMCs), in particular, PBMCs of critically ill patients with autophagy inducers can be used to suppress enhanced osteoclastogenesis. It turned out that a particular advantage is that such autophagy inducers can be targeted to particularly treat the PBMCs.

p62 protein = test: Autophagy marker p62 protein expression (western blot) in PBMCs/osteoclasts; details: healthy PBMCs, RANKL/MCSF stimulated, spermidine 2×10^-8 M, 14 days
From the text: We also measured markers of autophagy in the cell lysates from these experiments. The concentration of proteins we obtained were quite low, and there was insufficient protein to measure anything by western blotting in the “sick spermidine” group. […] There was no effect of spermidine on the healthy PBMCs (FIG. 6).
FIG. 6 concerns autophagy marker p62 protein expression in healthy and sick PBMCs/osteoclasts (RANKL/MCSF stimulated) and the effect of spermidine on healthy PBMCs/osteoclasts. Healthy and sick PBMCs were cultured for 14 days with or without spermidine (2×10^−8 M) in 6 well plates (5×10^6 cells/well). After 14 days, protein was extracted using the Ambion PARIS extraction kit (Applied Biosystems), and proteins quantified using the BC Protein Assay (Thermo Fischer Scientific). (A) 5 ug of protein was subjected to 15% Bis-tris gelelectrophoresis, transferred to nitrocellulose membrane and incubated at 4° C. overnight in Anti-p62 (Novus Biologicals; 1:1000). p62 protein was detected by ECL following incubation with AntiMouseIgG (DAKO; 1:1000). GAPDH was used as a loading control. (B) p62 relative expression was quantified with Image QuantTL (Amersham Biosciences) and normalized to GAPDH (n=3; ***p≦0.05 vs. Healthy).

[2] = tested on: Peripheral Blood Mononuclear Cells (PBMCs); test: Osteoclast resorption of a hydroxyapatite layer (Von Kossa, ImageJ) by PBMC-derived osteoclasts; details: 14 days; for osteoclast activity (resorption): healthy PBMCs stimulated with RANKL and M-CSF, dose response, 10^-6, 10^-7 and 10^-8 M
Description: PBMCs were isolated from the whole blood of patients or healthy volunteers by means of Ficoll-Paque Plus (GE Healthcare, Brussels, Belgium) density gradient centrifugation according to the manufacturer's instructions. Heparinized whole blood (20 ml) was drawn from each individual and diluted 1:1 with alpha minimal essential medium (α-MEM; Lonza, Braine-l'Alleud, Belgium), before being layered over Ficoll-Paque and centrifuged at 450 g for 40 min. The mononuclear cell interface was then removed and washed 3 times with α-MEM. Cells were stored in liquid nitrogen until use and seeded at a density of 5×10^5 cells per well. All cultures were performed in quadruplicate in 16-well culture slides (VWR, Leuven, Belgium) or 16-well BD Biocoat Osteologic Slides (BD Biosciences), and cells were cultured in α-MEM supplemented with 10% FBS, 100 IU/ml penicillin and 100 μg/ml streptomycin (“complete medium”), or complete medium plus M-CSF (25 ng/ml) and RANKL (30 ng/ml). […]
(§1) After 14 days, PBMCs were fixed and stained for the osteoclast-specific marker tartrate-resistant acid phosphate (TRAP), and the nuclear marker DAPI, as previously described. The formation of TRAP positive multi-nucleated (more than three nuclei) cells was quantified by counting the multi-nuclear stained cells in each well (D'Amelio P, Grimaldi A, Pescarmona G P, Tamone C, Roato I, Isaia G. Spontaneous osteoclast formation from peripheral blood mononuclear cells in postmenopausal osteoporosis. FASEB J. 2005; 19(3):410-2.). Filamentous (F)-actin rings representing active osteoclasts were visualized after staining of the actin cytoskeleton with the toxin phalloidin conjugated to FITC, and quantified by counting, as described above. […] Lacunar resorption was determined by measuring the total area unstained by Von-Kossa (total area resorbed) using ImageJ software (National Institute of Health, MD, USA), and was expressed as the total percentage of the surface reabsorbed. […]

[3] = tested on: Peripheral Blood Mononuclear Cells (PBMCs); test: Osteoclast formation: TRAP positive multinuclear cells in PBMC cultures; details: for TRAP positive multinuclear cells (osteoclast formation): spermidine 10^-8 M; for spontaneous osteoclast formation: 14 days
Description: PBMCs were isolated from the whole blood of patients or healthy volunteers by means of Ficoll-Paque Plus (GE Healthcare, Brussels, Belgium) density gradient centrifugation according to the manufacturer's instructions. Heparinized whole blood (20 ml) was drawn from each individual and diluted 1:1 with alpha minimal essential medium (α-MEM; Lonza, Braine-l'Alleud, Belgium), before being layered over Ficoll-Paque and centrifuged at 450 g for 40 min. The mononuclear cell interface was then removed and washed 3 times with α-MEM. Cells were stored in liquid nitrogen until use and seeded at a density of 5×10^5 cells per well. All cultures were performed in quadruplicate in 16-well culture slides (VWR, Leuven, Belgium) or 16-well BD Biocoat Osteologic Slides (BD Biosciences), and cells were cultured in α-MEM supplemented with 10% FBS, 100 IU/ml penicillin and 100 μg/ml streptomycin (“complete medium”), or complete medium plus M-CSF (25 ng/ml) and RANKL (30 ng/ml). In order to study the effect of circulating factors on osteoclast formation, PBMCs were also grown in α-MEM containing 10% human healthy volunteer serum (HS) or 10% patient serum (PS), in the presence or absence of M-CSF (25 ng/ml) and RANKL (30 ng/ml). For cytokine neutralization experiments, PBMCs were grown in α-MEM/10% PS for 14 days, in the presence of varying concentrations of anti-TNF-α and/or anti-IL-6 (R&D Systems, Abingdon, UK). All cultures were maintained at 37° C. in a humidified atmosphere with 5% CO2.
as §1

Nc1ncn([C@@H]2O[C@H](CO)[C@@H](O)[C@H]2O)c(=O)n1 [5-azacytidine]
critical illness enhanced osteoclast formation [1]: inhibiting effect

CO[C@H]1C[C@@H]2CC[C@@H](C)[C@@](O)(O2)C(=O)C(=O)N2CCCC[C@H]2C(=O)O[C@H]([C@H](C)C[C@@H]2CC[C@@H](OCCO)[C@H](OC)C2)CC(=O)[C@H](C)/C=C(\C)[C@@H](O)[C@@H](OC)C(=O)[C@H](C)C[C@H](C)/C=C/C=C/C=C/1C [Everolimus, 40-O-(2-hydroxyethyl)-rapamycin]
critical illness enhanced osteoclast formation [1]: inhibiting effect

CC(CN1c2ccccc2Sc2ccccc21)N(C)C (stereo not drawn) [Promethazine, 10-(2-dimethylaminopropyl)phenothiazine]
critical illness enhanced osteoclast formation [1]: inhibiting effect

NCCCCNCCCN [Spermidine]
p62 protein expression (p62 protein): no effect | critical illness enhanced osteoclast formation [1]: inhibiting effect | osteoclast activity (resorption) [2]: reduced | osteoclast activity (resorption) ([2]; listed as spermidine): inhibits | osteoclast resorption of hydroxyapatite layer ([2]; sick stimulated (RANKL/MCSF) PBMCs, increase vs healthy, spermidine 2×10^-8 M): reduced; also recorded: completely blocked | TRAP positive multinuclear cells (osteoclast formation) ([3]; healthy PBMCs stimulated with RANKL and MCSF, day 14): did not, however, have a significant effect | spontaneous osteoclast formation ([3]; healthy unstimulated (no RANKL or MCSF) PBMCs): no effect | TRAP positive multinuclear cells (osteoclast formation) ([3]; sick (critically ill) PBMCs stimulated with RANKL and MCSF, day 14, vs control sick PBMCs): significant reduction; also recorded: completely blocked | spontaneous osteoclast formation ([3]; sick unstimulated (no RANKL or MCSF) PBMCs, increase vs healthy): completely knocked down
